Where two headings read alike, the source gives them in different places.
Legend:
Assay in all cases: microbe, parasite or virus in culture
Type in all cases: cell-based, Hepatitis C virus (HCV)
HCV replicon 1B = conditions: replicon 1B, Replicon Assay B
HCV replicon 1AQ30D = conditions: Replicon Assay B
HCV replicon 1AY93H = conditions: Replicon Assay A
Summary of the method: (§1)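 Three-day treatment of replicon cells (2000/well, 5% FBS, 0.5% DMSO), followed by TaqMan RT-PCR of replicon RNA with cyclophilin as internal control.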

HCV replicon 1A = conditions: replicon 1A, Replicon Assay A
Summary of the method: as §1

HCV replicon 2B = conditions: Replicon Assay A
Summary of the method: as §1

[1] = Hepatitis C virus, read-out: 1A Q30D IC50 (nM), replicon 1AQ30D
[2] = read-out: 1A Q30D IC50, replicon 1AQ30D
[3] = read-out: 1A Y93H IC50, replicon 1AY93H

| SMILES | IC50 (HCV replicon 1B; Hepatitis C virus) [pM] | IC50 (HCV replicon 1AQ30D; [1]) [nM] | IC50 (HCV replicon 1AY93H; Hepatitis C virus, read-out: 1A Y93H IC50 (nM), replicon 1AY93H) [nM] | IC50 (HCV replicon 1A; Hepatitis C virus) [pM] | IC50 (HCV replicon 2B; Hepatitis C virus, read-out: 2B IC50 (nM), replicon 2B) [nM] | IC50 (HCV replicon 1AQ30D; [2]) [nM] | IC50 (HCV replicon 1AY93H; [3]) [nM] | IC50 (HCV replicon 1A) [pM] | IC50 (HCV replicon 2B; read-out: 2B IC50, replicon 2B) [nM] | IC50 (HCV replicon 1B) [pM] |
| --- | --- | --- | --- | --- | --- | --- | --- | --- | --- | --- |
| COC(=O)NC(C(=O)N1CCC[C@H]1c1ncc(-c2ccc3c(c2)cc2n3C(c3ccc(C4CC4)s3)Oc3cc(-c4cnc([C@@H]5CCCN5C(=O)[C@@H](NC(=O)OC)C(C)C)[nH]4)cc(F)c3-2)[nH]1)C1C[C@@H](C)O[C@@H](C)C1 (single isomer, unassigned) [Compound 206] | 2.6 | 2.91 | 0.16 | 1.4 | 0.16 |  |  |  |  |  |
| COC(=O)NC(C(=O)N1CCC[C@H]1c1ncc(-c2cc(F)c3c(c2)OC(c2ccc(C4CC4)s2)n2c-3cc3cc(-c4cnc([C@@H]5CCCN5C(=O)[C@@H](NC(=O)OC)C(C)C)[nH]4)ccc32)[nH]1)C1CCOC(C)(C)C1 (single isomer, unassigned) [Compound 214] | 2.2 |  |  |  |  | 0.032 | 0.009 | 3 | 0.005 |  |
| COC(=O)NC(C(=O)N1CCC[C@H]1c1ncc(-c2cc(F)c3c(c2)OC(c2ccc(C4CC4)s2)n2c-3cc3cc(-c4cnc([C@@H]5CCCN5C(=O)[C@@H](NC(=O)OC)C(C)C)[nH]4)ccc32)[nH]1)C1CCOC(C)(C)C1 (single isomer, unassigned) [Compound 215] |  |  |  |  |  | 0.017 | 0.005 | 3.1 | 0.01 | 3.2 |
| COC(=O)NC(C(=O)N1CCC[C@H]1c1ncc(-c2cc(F)c3c(c2)OC(c2ccc(C4CC4)s2)n2c-3cc3cc(-c4cnc([C@@H]5CCCN5C(=O)[C@@H](NC(=O)OC)C(C)C)[nH]4)ccc32)[nH]1)C1CCOC(C)(C)C1 (single isomer, unassigned) [Compound 216] |  |  |  |  |  | 1.03 | 0.18 | 1.7 | 0.31 | 3.3 |
| COC(=O)NC(C(=O)N1CCC[C@H]1c1ncc(-c2ccc3c(c2)cc2n3C(c3ccc(C4CC4)s3)Oc3cc(-c4cnc([C@@H]5CCCN5C(=O)[C@@H](NC(=O)OC)C(C)C)[nH]4)cc(F)c3-2)[nH]1)C1CN(C(=O)OC)C1 (single isomer, unassigned) [Compound 226] | 3.6 | 0.13 |  | 2.6 |  |  | 0.009 |  | 0.025 |  |
| COC(=O)NC(C(=O)N1CCC[C@H]1c1ncc(-c2cc(F)c3c(c2)OC(c2ccc(C4CCC4)s2)n2c-3cc3cc(-c4cnc([C@@H]5CCCN5C(=O)[C@@H](NC(=O)OC)C5CCOCC5)[nH]4)ccc32)[nH]1)C(C)(C)F (single isomer, unassigned) [Compound 248] | 3.2 | 0.43 |  |  |  |  | 0.11 | 2.5 | 0.076 |  |
| COC(=O)NC(C(=O)N1CCC[C@H]1c1ncc(-c2cc(F)c3c(c2)OC(c2ccc(C4CCC4)s2)n2c-3cc3cc(-c4cnc([C@@H]5CCCN5C(=O)[C@@H](NC(=O)OC)C5CCOCC5)[nH]4)ccc32)[nH]1)C(C)(C)F (single isomer, unassigned) [Compound 251] |  |  |  |  |  | 0.4 | 0.06 | 1.2 | 0.1 | 2.5 |
| CCc1ccc(C2Oc3cc(-c4cnc([C@@H]5CCCN5C(=O)[C@@H](NC(=O)OC)C(C)C)[nH]4)cc(F)c3-c3cc4cc(-c5cnc([C@@H]6C[C@@H](F)CN6C(=O)C(NC(=O)OC)C6CCOC(C)(C)C6)[nH]5)ccc4n32)s1 (single isomer, unassigned) [Compound 258] | 2.7 |  |  |  |  | 1.2 | 0.004 | 1.8 | 0.43 |  |
| CCc1ccc(C2Oc3cc(-c4cnc([C@@H]5CCCN5C(=O)[C@@H](NC(=O)OC)C(C)C)[nH]4)cc(F)c3-c3cc4cc(-c5cnc([C@@H]6C[C@@H](F)CN6C(=O)C(NC(=O)OC)C6CCOC(C)(C)C6)[nH]5)ccc4n32)s1 (single isomer, unassigned) [Compound 259] |  |  |  |  |  | 0.31 | 0.002 | 3.1 | 0.32 | 3.3 |
| COC(=O)N[C@H](C(=O)N1CCC[C@H]1c1ncc(-c2ccc3c(c2)OC(c2cc4ccccc4s2)n2c-3cc3cc(-c4cnc([C@@H]5CCCN5C(=O)[C@@H](NC(=O)OC)C5CCOCC5)[nH]4)ccc32)[nH]1)C1CCOCC1 (single isomer, unassigned) [Compound 262] | 4 |  |  | 4.2 |  | 0.12 | 0.052 |  | 0.019 |  |
| COC(=O)N[C@H](C(=O)N1CCC[C@H]1c1ncc(-c2ccc3c(c2)OC(c2cc4ccccc4s2)n2c-3cc3cc(-c4cnc([C@@H]5CCCN5C(=O)[C@@H](NC(=O)OC)C5CCOCC5)[nH]4)ccc32)[nH]1)C1CCOCC1 (single isomer, unassigned) [Compound 263] |  |  |  |  |  | 0.012 | 0.003 | 3.6 | 0.005 | 3.4 |
| COC(=O)NC(C(=O)N1CCC[C@H]1c1ncc(-c2ccc3c(c2)cc2n3C(c3ccc(C(F)F)s3)Oc3cc(-c4cnc([C@@H]5CCCN5C(=O)[C@@H](NC(=O)OC)C(C)C)[nH]4)cc(F)c3-2)[nH]1)C1C[C@@H](C)O[C@@H](C)C1 (single isomer, unassigned) [Compound 266] | 1.5 | 0.051 |  | 1.1 |  |  | 0.003 |  | 0.008 |  |
| COC(=O)NC(C(=O)N1CCC[C@H]1c1ncc(-c2ccc3c(c2)cc2n3C(c3ccc(C4CC4)s3)Oc3cc(-c4cnc([C@@H]5CCCN5C(=O)[C@@H](NC(=O)OC)C(C)C)[nH]4)cc(F)c3-2)[nH]1)C1CN(C(=O)C2CC2)C1 (single isomer, unassigned) [Compound 267] | 3.9 | 0.08 |  |  |  |  | 0.013 | 3.5 | 0.012 |  |
| COC(=O)NC(C(=O)N1[C@@H]2C[C@@H]2C[C@H]1c1ncc(-c2ccc3c(c2)cc2n3C(c3ccc(C4CC4)s3)Oc3cc(-c4cnc([C@@H]5CCCN5C(=O)[C@@H](NC(=O)OC)C(C)C)[nH]4)cc(F)c3-2)[nH]1)C1C[C@@H](C)O[C@@H](C)C1 (single isomer, unassigned) [Compound 271] | 2.2 |  |  |  |  | 0.036 | 0.004 | 3.4 | 0.013 |  |
| COC(=O)NC(C(=O)N1[C@@H]2C[C@@H]2C[C@H]1c1ncc(-c2ccc3c(c2)cc2n3C(c3ccc(C4CC4)s3)Oc3cc(-c4cnc([C@@H]5CCCN5C(=O)[C@@H](NC(=O)OC)C(C)C)[nH]4)cc(F)c3-2)[nH]1)C1C[C@@H](C)O[C@@H](C)C1 (single isomer, unassigned) [Compound 272] |  |  |  |  |  | 2.39 | 1 | 2.7 | 2.75 | 3.3 |
| COC(=O)NC(C(=O)N1[C@@H]2C[C@@H]2C[C@H]1c1ncc(-c2ccc3c(c2)cc2n3C(c3ccc(C4CC4)s3)Oc3cc(-c4cnc([C@@H]5CCCN5C(=O)[C@@H](NC(=O)OC)C(C)C)[nH]4)cc(F)c3-2)[nH]1)C1C[C@@H](C)O[C@@H](C)C1 (single isomer, unassigned) [Compound 273] |  |  |  |  |  | 2.06 | 0.18 | 1.5 | 0.74 | 2 |
| COC(=O)NC(C(=O)N1[C@@H]2C[C@@H]2C[C@H]1c1ncc(-c2ccc3c(c2)cc2n3C(c3ccc(C4CC4)s3)Oc3cc(-c4cnc([C@@H]5CCCN5C(=O)[C@@H](NC(=O)OC)C(C)C)[nH]4)cc(F)c3-2)[nH]1)C1CCOC(C)(C)C1 (single isomer, unassigned) [Compound 276] | 2.4 | 0.018 |  | 1.5 |  |  | 0.001 |  | 0.005 |  |
| COC(=O)N[C@H](C(=O)N1CCC[C@H]1c1ncc(-c2cc(F)c3c(c2)OC(c2ccc(C4CC4)s2)n2c-3cc3cc(-c4cnc([C@@H]5CCCN5C(=O)[C@@H](NC(=O)OC)C5CCOCC5)[nH]4)ccc32)[nH]1)C1CCOCC1 (single isomer, unassigned) [Compound 279] | 2.9 |  |  | 2.3 |  | 0.92 | 0.21 |  | 0.017 |  |
